What all share (format): cell-based, human
Experiment [1] concerns CLL cells. Briefly: Hoechst 33342 apoptosis assay, CLL cells. The conditions noted are these: for percentage of apoptotic cells: 10 uMol/L rolipram. How it is done: Hoechst 33342 was dissolved in water and frozen at 33 mg/mL at −20° C. One million cells/well were incubated in duplicate or triplicate in 48 well tissue culture plates (Costar, Cambridge, Mass.) with or without drug treatment for […] in 1 mL of culture media. Cells were transferred to 12×75 mm polystyrene Falcon® 2054 FACS tubes (Becton Dickinson Labware, Lincoln Park, N.J.) and incubated for ten minutes at 37° C. with Hoechst 33342 at a final concentration of […]. 23 Cells were stored on ice until analysis on a FACS Vantage flow cytometer (Becton Dickinson, San Jose, Calif.). Hoechst 33342 dye fluorescence was excited with a UV laser and detected using a 450 bandpass filter; Data was analyzed using Cellquest software (Becton Dickinson, San Jose, Calif.).
As a more quantitative analysis of CLL apoptosis, we utilized a flow cytometry method in which apoptotic cells are distinguished both by their reduced size (FSC) and their increased uptake of the lipophilic UV fluorescent dye Hoechst 33342 (FL-4) when the intact, heterogeneous cell population is incubated with a low concentration of the dye (0.25 ug/mL) for 10 minutes at 37° C. Specifically, cells were cultured for 72 hours in media (1), 1uMol/L rolipram (2), 40 uMol/L forskolin (3) or a combination of the two drugs (FIG. 6). The abcissa reflects forward light scatter and the ordinate Hoechst 33342 fluorescence. Apoptotic cells are characterized by reduced forward light scatter and increased Hoechst 33342 fluorescence. Previous reports of cAMP induced lymphoid apoptosis have noted that this form of programmed cell death may take 48 to 72 hours to develop maximally. […] CLL cells were cultured for 72 hours in one mL of media with the indicated concentration of rolipram with (black bars) or without (stippled bars) the addition of 40 uMol/L forskolin.

In experiment [2] the test system is CLL cells. Briefly: DNA ladder gel assay. The following applies: 72 hours; 10 uMol/L rolipram, 40 uMol/L forskolin. The procedure:
10 million purified CLL cells were harvested by centrifugation following exposure to drugs during a 72 hour tissue culture incubation. Cells were lysed in 0.5 mL of 20 mMol/L Tris (pH 7.4), 0.4 mMol/L EDTA, 0.25% Triton X. After 15 minutes of incubation at room temperature, nuclei were removed by centrifugation at 14,000 rpm (RCF=16,000). The supernatant was transferred to a new tube and soluble DNA precipitated overnight at −20° C. following the addition of […] of 5 Mol/L NaCl and […] of isopropanol. After centrifugation at 14000 rpm for 10 minutes, followed by a 70% ethanol wash, the pellet was resuspended in 20 uL of 10 mMol/L Tris (pH 8.0), 1 mMol/L EDTA, 0.1 mg/mL RNase and incubated at 37° C. for 30 minutes prior to electrophoresis on 1.6% TBE agarose gels. DNA fragments were visualized by UV light after staining the gels with ethidium bromide.
Consequently, a study of the activity of type 4-specific PDE inhibitors as inducers of cAMP-mediated apoptosis in leukemic cells from CLL patients was carried out. CLL cells were incubated for 72 hours either alone or with 10 uMol/L rolipram, 40 uMol/L forskolin or both agents. We tested whether rolipram induces intemucleosomal DNA fragmentation characteristic of apoptosis by isolating soluble DNA from the leukemic cells with detergent treatment, then removing DNA from intact non-apoptotic nuclei by centrifugation. […]

Experiment [3] concerns CLL cells. Briefly: cAMP assay (RIA) in CLL cells. The conditions noted are these: two hours; used alone and combined with forskolin. How it is done:
(§1) One million cells in 1 mL were treated for two hours with or without drugs. 0.8 mL of cells were pelleted by spinning at 4,000 rpm (RCF=1,310) in microcentrifuge tube. After discarding 0.7 mL, 400 uL of ethanol was added, vortexed and left on ice for five minutes. Particulate cell debris was removed by centrifugation at 14,000 rpm (RCF=16,000). The supernatant was stored at −20° C. until the day of assay, at which time it was dried in a Speedivac (Savant, Farmingdale, N.Y.) to a volume of 50 uL. After ten-fold dilution in 10 mMol/L Tris pH 8.0, 1 mMol/L EDTA, the cAMP sample was analyzed for cAMP concentration using a cAMP RIA kit (NEN, Boston, Mass.) according to the manufacturer's instructions using the nonacetylated protocol.
In this example, it was determined what role type 1 and type 4 PDE activity might play in the catabolism of cyclic nucleotides in CLL cells. cAMP levels were measured after culturing leukemic cells with varying concentrations of PDE-isoform specific inhibitors, either alone or in conjunction with an activator of adenylate cyclase, the diterpene forskolin. Specifically, one million freshly isolated cells were incubated with the indicated drugs for two hours prior to analysis of cAMP in cell lysates using a radioimmunoassay. The results are shown in FIG. 4 and the data are the mean of three individually assayed culture wells.
In general terms: Changes in cAMP serve as a functional read-out for many G protein-coupled receptors.

The subject of the next experiment is CD19+ B cells. In words: cAMP assay (RIA) in CD19+ B cells. The conditions noted are these: at two hours; unstimulated or anti-Ig stimulated. The procedure: as §1
For each of the four cell populations, two or six hours after drug treatment, cAMP levels were higher for rolipram/forskolin-treated cells than for forskolin only treated cells (test: one tailed significance level<0.05) (FIG. 9).

`COc1ccc(C2CNC(=O)C2)cc1OC1CCCC1` (racemic) [rolipram, 4-(3-cyclopentyloxy-4-methoxyphenyl)-2-pyrrolidone]: the “absolute increase in apoptotic cells” value with CLL cells [1] (10 uMol/L, four relatively rolipram-resistant patient samples (Pt #'s 11-14)) was “less than 33%”. Also, the CLL cell apoptosis entry with CLL cells [1] (72 hour culture, rolipram dose range with or without 40 uMol/L forskolin) is on record as “dose dependent increase in CLL cell apoptosis”. Further, the “apoptosis of anti-Ig stimulated CLL cells” value in the experiment on CLL cells [1] (CLL cells derived from two patients) was “failed to protect these cells from rolipram-induced apoptosis”. Besides, the “percentage of apoptotic cells” value worked out at 80% with CLL cells [1] (Pt. 1, Rai III, basal 47, 40 uMol/L forskolin or 100 uMol/L dbcAMP, three days); 79% in the experiment on CLL cells [1] (Pt. 2, Rai IV, Drug Res. Ch, Cy, basal 18 ± 2, 40 uMol/L forskolin or 100 uMol/L dbcAMP, three days); 77 ± 1% with CLL cells [1] (Pt. 3, Rai IV, Drug Res. Ch, CH, basal 38, 40 uMol/L forskolin or 100 uMol/L dbcAMP, three days); 76 ± 2% with CLL cells [1] (Pt. 4, Rai I, basal 31 ± 2, 40 uMol/L forskolin or 100 uMol/L dbcAMP, three days); 57 ± 2% in the experiment with CLL cells [1] (Pt. 5, Rai IV, basal 18, 40 uMol/L forskolin or 100 uMol/L dbcAMP, three days); 54 ± 1% in the experiment on CLL cells [1] (Pt. 6, Rai IV, Drug Res. Ch, basal 17 ± 4, 40 uMol/L forskolin or 100 uMol/L dbcAMP, three days). Besides, the “percentage of apoptotic cells” value in the experiment on CLL cells [1] (Pt. 7, Rai II, Drug Res. Ch, basal 13 ± 2, 40 uMol/L forskolin or 100 uMol/L dbcAMP, three days) was 47 ± 2%; in the experiment on CLL cells [1] (Pt. 8, Rai 0, basal 5, 40 uMol/L forskolin, three days), 46%; in the experiment on CLL cells [1] (Pt. 9, Rai IV, Drug Res. Ch, Cy, Fl, basal 4 ± 0, 40 uMol/L forskolin or 100 uMol/L dbcAMP, three days), 44 ± 3%; in the experiment with CLL cells [1] (Pt. 10, Rai I, basal 11, 40 uMol/L forskolin or 100 uMol/L dbcAMP, three days), 44 ± 0%; with CLL cells [1] (Pt. 11, Rai 0, basal 24 ± 4, 40 uMol/L forskolin or 100 uMol/L dbcAMP, three days) it was 40 ± 0%; in the experiment on CLL cells [1] (Pt. 12, Rai IV, Drug Res. Ch, Fl, 2C, basal 0 ± 4, 40 uMol/L forskolin or 100 uMol/L dbcAMP, three days), 38 ± 1%. For the same compound, the “percentage of apoptotic cells” value with CLL cells [1] (Pt. 13, Rai 0, basal 2 ± 0, 40 uMol/L forskolin or 100 uMol/L dbcAMP, three days) is reported as 34 ± 0%; in the experiment on CLL cells [1] (Pt. 14 (significant population of cells with prolymphocyte morphology), Rai I, basal 13 ± 0, 40 uMol/L forskolin or 100 uMol/L dbcAMP, three days) it was 14 ± 0%. Also, the “effect on doxorubicin-induced apoptosis” value in the experiment with CLL cells [1] (rolipram 10 uMol/L, doxorubicin 0.03 or 0.1 uMol/L, three days) was “augments doxorubicin-induced apoptosis”. The “effect on fludarabine-induced apoptosis” value in the experiment with CLL cells [1] (rolipram 10 uMol/L, fludarabine 0.3-3.0 uMol/L, three days) is on record as “augments fludarabine-induced apoptosis”. For the same compound, in the experiment with CLL cells [1] (rolipram 10 uMol/L, three days), the “effect on chlorambucil-induced apoptosis” value is “augments chlorambucil-induced apoptosis”. The “internucleosomal DNA fragmentation” value in the experiment with CLL cells [2] is recorded as “pronounced internucleosomal DNA fragmentation”. Also, the “CLL cAMP levels” value with CLL cells [3] is reported as “augmented CLL cAMP levels”. Further, in the experiment with CD19+ B cells, the “cAMP levels in CD19+ B cells” value is given as “raised cAMP levels equivalently”.

For the origin of these results see patent publication US6399649B1, “Compositions and methods for the treatment of chronic lymphocytic leukemia” (Boston Medical Center Corporation, priority 1998, dated 2002).
